Article PMC6978316, “Development of chimeric peptides to facilitate the neutralisation of lipopolysaccharides during bactericidal targeting of multidrug-resistant Escherichia coli” (Communications Biology, 2020)
Where a SMILES comes first, the peptide text is derived from it. Bridges are numbered along the chain shown (N, C = ends).

What was measured:
E. coli CVCC195 = type: cell-based, Escherichia coli; conditions: E. coli CVCC195
Method: Bacterial resistance against the peptides was assessed via the MIC assays. […] After 16–18 h of incubation at 37 °C, cells from the second highest concentration showing visible growth were used to inoculate the subsequent cultures. The MIC values for drug passage cultures were obtained as described above. This process was repeated for 30 d.

MDR E. coli CVCC195 [1] = assay: SEM and TEM, cell morphology and ultrastructure; type: cell-based, Escherichia coli; conditions: E. coli CVCC195, 4 × MIC, 2 h; at least 200 cells scored; manuscript lines quoted in the peer review file
Method: SEM was used to examine the ultrastructural changes in bacteria treated with peptides. […] PBS was used as the negative control. After centrifugation, the bacterial precipitation was added with 2.5% glutaraldehyde and the cells were fixed at 4 °C for 24 h. After ethanol dehydration, drying and coating, samples were visualized by a QUANTA200 SEM (FEI, Philips, Netherlands)[65].
The processing and preparation of TEM samples was similar to that of SEM until glutaraldehyde fixation. After washing with PBS, bacterial cells were fixed in 1% […] buffer for 1 h, dehydrated in a series of acetone (50–100%) and embedded, followed by preparation into ultra-thin sections and staining with 1% uranyl acetate. […] At least 200 bacterial cells were visualized and scored for the observed characteristics.

binding of LPS to LBP = assay: Binding of LPS to LBP on LPS-immobilized plate (ELISA); type: biochemical; conditions: mean of n = 3
Method: The 96-well microtiter plates were coated with 4 ng per ml LPS (0.1 M Na2CO3 and 20 mM EDTA, pH 9.6, 50 μl per well) overnight at 4 °C, washed three times with PBST, and blocked with PBS (containing 1% BSA) for 2 h. After washing with PBST again, the plates were incubated at 37 °C for 1 h with different concentrations of peptides (A6, G6, or N6), which were dissolved in Dulbecco's Modified Eagle's (DMEM) medium (containing 10% FBS). After washing, cells were incubated with anti-LBP mAb 6G3 (ThermoFisher) for 1 h at 37 °C and HRP-conjugated rabbit anti-mouse IgG for 1 h at room temperature, respectively. Tetramethylbenzidine (TMB) solution was then added and incubated for 25–30 min. Finally, the reaction was stopped by addition of 0.5 M H2SO4, and the absorbance was measured at 450 nm[50].

[2] = test system: binding of FITC-labeled LPS to RAW 264.7 cells; assay: Binding of FITC-labeled LPS to macrophages (flow cytometry); type: cell-based, mouse; conditions: FITC-LPS 100 μg per ml, 0.1 μM peptide 1 h
Method: Similarly, after an incubation with FITC-labeled LPS and washing with medium, cells were incubated with rhodamine-labeled A6 or G6 (0.1 μM) at 37 °C for 1 h. After washing again, the effects of peptides on the binding of FITC-labeled LPS to the cells were analyzed by CLSM and flow cytometry, respectively.

NF-κB p-p65 subunit = assay: Western blotting of lung tissues, p-p65/p65; type: in vivo, mice; conditions: for densitometric analysis of p-p65/p65 ratio: LPS + substance, Mean; for inhibition of LPS-induced translocation of the NF-κB p-p65 subunit: lung tissue 8 h, LPS 13.5 mg per kg, western blotting, densitometry
Method: (§1) Additionally, the mice were sacrificed at 8 h and the lung tissues were homogenized and suspended in […] HEPES buffer for 20 min according to standard procedures. After centrifugation at 4 °C for 20 min (12,000 rpm), the protein levels of supernatants were quantified using a Bradford protein assay kit. A total of 30 μg proteins were analyzed on an 8–12% sodium dodecyl sulfate-polyacrylamide gel electrophoresis (SDS-PAGE) gel and were immunoblotted onto PVDF membranes, followed by an incubation with the primary antibodies of p65, p-p65, extracellular signal-regulated kinase (ERK)1/2, p-ERK1/2, and IκBα overnight at 4 °C. After washing, the blots were incubated with the peroxidase conjugated goat-rabbit or goat-mouse antibodies. Relative protein expression levels were quantified by a densitometric measurement of chemiluminescence (ECL) reaction band. β-actin was used as the internal reference.

IκBα = assay: Western blotting of lung tissues, IκBα/β-actin; type: in vivo, mice; conditions: for densitometric analysis of IκBα/β-actin ratio: LPS + substance, Mean; for effect on LPS-induced IκBα levels: lung tissue 8 h, LPS 13.5 mg per kg, western blotting
Method: as §1

MDR E. coli CVCC195 [3] = assay: Thermal stability, residual antibacterial activity (inhibition zone); type: physicochemical, Escherichia coli; conditions: mean of n = 3
Method: (§2) The N6, A6, and G6 solutions were treated at different temperatures (20–100 °C) for 1 h, dissolved and incubated at different pH values (2–10) for 3 h, or incubated with trypsin or pepsin for 4 h. The inhibition zone diameters were measured after incubation at 37 °C for 18–24 h.

MDR E. coli CVCC195 [4] = assay: pH stability, residual antibacterial activity (inhibition zone); type: physicochemical, Escherichia coli; conditions: inhibition zone vs E. coli CVCC195, mean of n = 3
Method: as §2

[5] = 0.625 μM, LPS-coated plate, peptide in DMEM + 10% FBS, 37 °C, 1 h, anti-LBP mAb, OD450
[6] = 20℃ for 1 h, inhibition zone vs E. coli CVCC195 after 37 °C 18–24 h
[7] = 40℃ for 1 h, inhibition zone vs E. coli CVCC195
[8] = 60℃ for 1 h, inhibition zone vs E. coli CVCC195
[9] = 80℃ for 1 h, inhibition zone vs E. coli CVCC195
[10] = 100℃ for 1 h, inhibition zone vs E. coli CVCC195

| Compound | change of MIC over the course of 30 serial passages (E. coli CVCC195) | abnormal cells in TEM (lysis, non-uniform cytoplasmic electron and morphologically abnormal cells) (MDR E. coli CVCC195 [1]) | LPS-LBP binding (relative), Mean (binding of LPS to LBP; [5]) | LPS-LBP binding (relative), Mean (binding of LPS to LBP; 1.25 μM) | LPS-LBP binding (relative), Mean (binding of LPS to LBP; 2.5 μM) | LPS-LBP binding (relative), Mean (binding of LPS to LBP; 5 μM) | LPS-LBP binding (relative), Mean (binding of LPS to LBP; 10 μM) | LPS-LBP binding (relative), Mean (binding of LPS to LBP; 20 μM) | LPS-LBP binding (relative), Mean (binding of LPS to LBP; 40 μM) | inhibition rate of FITC-labeled LPS binding to RAW 264.7 cells [2] [%] | densitometric analysis of p-p65/p65 ratio (NF-κB p-p65 subunit) | inhibition of LPS-induced translocation of the NF-κB p-p65 subunit (NF-κB p-p65 subunit) [%] | densitometric analysis of IκBα/β-actin ratio (IκBα) | effect on LPS-induced IκBα levels (IκBα) | antibacterial activity after heat treatment (inhibition zone diameter), Mean (MDR E. coli CVCC195 [3]; [6]) | antibacterial activity after heat treatment (inhibition zone diameter), Mean (MDR E. coli CVCC195 [3]; [7]) | antibacterial activity after heat treatment (inhibition zone diameter), Mean (MDR E. coli CVCC195 [3]; [8]) | antibacterial activity after heat treatment (inhibition zone diameter), Mean (MDR E. coli CVCC195 [3]; [9]) | antibacterial activity after heat treatment (inhibition zone diameter), Mean (MDR E. coli CVCC195 [3]; [10]) | antibacterial activity after pH treatment (inhibition zone diameter), Mean (MDR E. coli CVCC195 [4]; pH=2 for 3 h) | also measured |
| --- | --- | --- | --- | --- | --- | --- | --- | --- | --- | --- | --- | --- | --- | --- | --- | --- | --- | --- | --- | --- | --- |
| polymyxin B [PMB] | hardly changed | 1% | 0.8274 | 0.5768 | 0.4491 | 0.3343 | 0.393 | 0.3466 | 0.2168 | 13.5 | 0.01553 | 98.4 | 1.0324 | promoted LPS-induced IκBα levels | – | – | – | – | – | – | – |
| H-RVQGRWKVRASFFKEAAAKEAAAKGFAWNVCVYRNGVRVCHRRAN-OH (disulfide 31-40) [A6] | hardly changed | Approximately 75% | 0.6863 | 0.4991 | 0.4036 | 0.3236 | 0.2858 | 0.2468 | 0.1705 | 33.2 | 0.106 | 89.7 | 1.193 | promoted LPS-induced IκBα levels | 1.498 | 1.533 | 1.494 | 1.5 | 1.477 | 1.463 | antibacterial activity after pH treatment (inhibition zone diameter), Mean (MDR E. coli CVCC195 [4]; pH=4 for 3 h): 1.443; antibacterial activity after pH treatment (inhibition zone diameter), Mean (MDR E. coli CVCC195 [4]; pH=6 for 3 h): 1.4; antibacterial activity after pH treatment (inhibition zone diameter), Mean (MDR E. coli CVCC195 [4]; pH=8 for 3 h): 1.41; antibacterial activity after pH treatment (inhibition zone diameter), Mean (MDR E. coli CVCC195 [4]; pH=10 for 3 h): 1.4 |
| CC(C)[C@@H]1NC(=O)CNC(=O)[C@H](CC(N)=O)NC(=O)[C@H](CCCNC(=N)N)NC(=O)[C@H](Cc2ccc(O)cc2)NC(=O)[C@H](C(C)C)NC(=O)[C@@H](NC(=O)[C@@H](NC(=O)[C@H](CC(N)=O)NC(=O)[C@H](Cc2c[nH]c3ccccc23)NC(=O)[C@H](C)NC(=O)[C@H](Cc2ccccc2)NC(=O)CN)C(C)C)CSSC[C@@H](C(=O)N[C@@H](Cc2c[nH]cn2)C(=O)N[C@@H](CCCNC(=N)N)C(=O)N[C@@H](CCCNC(=N)N)C(=O)N[C@@H](C)C(=O)N[C@@H](CC(N)=O)C(=O)O)NC(=O)[C@H](C(C)C)NC(=O)[C@H](CCCNC(=N)N)NC1=O [N6] (H-GFAWNVCVYRNGVRVCHRRAN-OH; disulfide 7-16; N-terminus and C-terminus assumed) | – | 19% | 0.82 | 1.017 | 0.8065 | 0.8105 | 0.7607 | 0.6457 | 0.5608 | 8 | 0.9793 | 5 | 1.158 | promoted LPS-induced IκBα levels | 1.935 | 1.912 | 1.95 | 1.964 | 1.917 | 1.883 | antibacterial activity after pH treatment (inhibition zone diameter), Mean (MDR E. coli CVCC195 [4]; pH=4 for 3 h): 1.877; antibacterial activity after pH treatment (inhibition zone diameter), Mean (MDR E. coli CVCC195 [4]; pH=6 for 3 h): 1.87; antibacterial activity after pH treatment (inhibition zone diameter), Mean (MDR E. coli CVCC195 [4]; pH=8 for 3 h): 1.86; antibacterial activity after pH treatment (inhibition zone diameter), Mean (MDR E. coli CVCC195 [4]; pH=10 for 3 h): 1.887 |
| CC(C)[C@@H]1NC(=O)CNC(=O)[C@H](CC(N)=O)NC(=O)[C@H](CCCNC(=N)N)NC(=O)[C@H](Cc2ccc(O)cc2)NC(=O)[C@H](C(C)C)NC(=O)[C@@H](NC(=O)[C@@H](NC(=O)[C@H](CC(N)=O)NC(=O)[C@H](Cc2c[nH]c3ccccc23)NC(=O)[C@H](C)NC(=O)[C@H](Cc2ccccc2)NC(=O)CNC(=O)[C@H](CO)NC(=O)CNC(=O)CNC(=O)CNC(=O)CNC(=O)[C@H](CCCCN)NC(=O)[C@H](Cc2ccccc2)NC(=O)[C@H](Cc2ccccc2)NC(=O)[C@H](CO)NC(=O)[C@H](C)NC(=O)[C@H](CCCNC(=N)N)NC(=O)[C@@H](NC(=O)[C@H](CCCCN)NC(=O)[C@H](Cc2c[nH]c3ccccc23)NC(=O)[C@H](CCCNC(=N)N)NC(=O)CNC(=O)[C@H](CCC(N)=O)NC(=O)[C@@H](NC(=O)[C@@H](N)CCCNC(=N)N)C(C)C)C(C)C)C(C)C)CSSC[C@@H](C(=O)N[C@@H](Cc2c[nH]cn2)C(=O)N[C@@H](CCCNC(=N)N)C(=O)N[C@@H](CCCNC(=N)N)C(=O)N[C@@H](C)C(=O)N[C@@H](CC(N)=O)C(=O)O)NC(=O)[C@H](C(C)C)NC(=O)[C@H](CCCNC(=N)N)NC1=O [G6] (H-RVQGRWKVRASFFKGGGGSGFAWNVCVYRNGVRVCHRRAN-OH; disulfide 26-35) | hardly changed | ~50% | 0.7905 | 0.7506 | 0.344 | 0.2387 | 0.1958 | 0.1311 | 0.1347 | 44.3 | 0.7685 | 25.3 | 0.9933 | promoted LPS-induced IκBα levels | 1.451 | 1.421 | 1.5 | 1.473 | 1.413 | 1.407 | antibacterial activity after pH treatment (inhibition zone diameter), Mean (MDR E. coli CVCC195 [4]; pH=4 for 3 h): 1.44; antibacterial activity after pH treatment (inhibition zone diameter), Mean (MDR E. coli CVCC195 [4]; pH=6 for 3 h): 1.4; antibacterial activity after pH treatment (inhibition zone diameter), Mean (MDR E. coli CVCC195 [4]; pH=8 for 3 h): 1.383; antibacterial activity after pH treatment (inhibition zone diameter), Mean (MDR E. coli CVCC195 [4]; pH=10 for 3 h): 1.387 |
